Experimental findings from patent EP0796090B1, “CROSS-LINKED MICROPARTICLES AND THEIR USE AS T[…]” (Elan Drug Delivery Limited, priority 1994, dated 1996) are described below.

This assay has as its system HSN cell line. In words: In vitro cytotoxic activity, MTT assay. In kind it is cell-based, rat. The note with it: HSN cells; for Emax: Rattus norvegicus, read-out: maximum reduction in cell activity. Here is the method:
Cytotoxic activity of the drug-microcapsule conjugates of Examples 5 to 7 was measured in vitro. The HSN cell line was used. This is a chemically-induced rat colonic sarcoma, which produces liver tumours in an animal model with a vascular pattern similar to that seen in human colorectal liver metastases. Cell kill was measured indirectly using MTT. This is reduced in active mitochondria to formazan, a coloured metabolite. HSN cells were incubated in multi-well plates to which was added a control dose of drug or drug-microcapsule lysate. After a range of exposure times, MTT was added to the wells and the concentration of formazan measured as an indication of […]. The assay was calibrated for this cell line against a range of known cell numbers.
For orientation: Tetrazolium assays rely on reduction of a dye to a coloured formazan, in cell work by metabolically active cells.

As for “2-fluoro-5-deoxyuridine [Example 5-FUdR]”, the “maximum reduction in cell activity” value was “approximately 80%”.

Take `COc1cccc2c1C(=O)c1c(O)c3c(c(O)c1C2=O)C[C@@](O)(C(=O)CO)C[C@@H]3O[C@H]1C[C@H](N)[C@H](O)[C@H](C)O1` [doxorubicin]: the “steepest part of the dose response curve” value was ≤ 0.1 µg/mL and the Emax is ~80%.

Turning to `CN(Cc1cnc2nc(N)nc(N)c2n1)c1ccc(C(=O)N[C@@H](CCC(=O)O)C(=O)O)cc1` [methotrexate], the Emax was ~80%.
